Columns and labels:
B. subtilis 168 [1] = assay: fitness (endpoint OD595 vs no drug) (fraction); higher = more growth
Summary of the method: (§1)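 In 384-well plates at 37 °C, cultures began at OD595 0.01 in 30 µl, with 55 µl used for S. pneumoniae. OD595 readings every 30 min for 14 h were corrected by the first reading. Fitness divides the stationary-phase transition optical density by the robust mean of no-drug control wells. The result is capped at 1.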

B. subtilis 168 [2] = assay: Bliss interaction score (quartile over a dose matrix) (fitness difference); higher = more antagonism (negative = synergy)
Summary of the method: (§2)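 Quartiles summarise the Bliss score over technical, biological and donor/recipient replicates, where the score is observed minus expected fitness under a product model. Expected fitness uses single-drug values inferred from combination data. Fitness is OD595 at entry into stationary phase over the plate's robust no-drug mean, capped at 1.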

S. aureus DSM 20231 = assay: as above
Summary of the method: as §2

S. aureus Newman = assay: as above
Summary of the method: as §2

S. pneumoniae D39V [3] = assay: as above
Summary of the method: as §2

S. pneumoniae D39V [4] = assay: fitness (endpoint OD595 vs no drug) (fraction); higher = more growth
Summary of the method: as §1
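Throughout, for Bliss interaction score (quartile over a dose matrix): first quartile when negative (synergy) and third quartile when positive (antagonism).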

CCC[C@@H]1C[C@@H](C(=O)N[C@@H]([C@H]2O[C@H](SC)[C@H](O)[C@@H](O)[C@H]2O)[C@H](C)Cl)N(C)C1 [Clindamycin] + CO[C@@H]1[C@@H](OC(N)=O)[C@@H](O)[C@H](Oc2ccc3c(O)c(NC(=O)c4ccc(O)c(CC=C(C)C)c4)c(=O)oc3c2C)OC1(C)C [Novobiocin]
fitness, B. subtilis 168 [1], one replicate
Conditions	first compound 0.0039 µg/mL	first compound 0.0078 µg/mL	first compound 0.0156 µg/mL	first compound 0.0625 µg/mL	first compound 0.125 µg/mL	first compound 0.25 µg/mL
partner 0.05 µg/mL	≥ 1	0.895	0.867	–	–	–
partner 0.1 µg/mL	≥ 1	0.889	0.843	–	–	–
partner 0.125 µg/mL	–	–	–	0.526	0.496	0.348
partner 0.2 µg/mL	≥ 1	0.903	0.818	–	–	–
partner 0.25 µg/mL	–	–	–	0.411	0.39	0.318
partner 0.5 µg/mL	–	–	–	0.353	0.276	0.0724

fitness, B. subtilis 168 [1]
Conditions	first compound 0.0625 µg/mL	first compound 0.125 µg/mL	first compound 0.25 µg/mL
partner 0.0125 µg/mL	0.558	0.365	0.346
partner 0.025 µg/mL	0.563	0.334	0.326
partner 0.05 µg/mL	0.581	0.369	0.325

Conditions	Bliss interaction score
B. subtilis 168 [2]	-0.063
S. aureus DSM 20231	0.0437
S. aureus Newman	0.16
S. pneumoniae D39V [3]	-0.102

CCC[C@@H]1C[C@@H](C(=O)N[C@@H]([C@H]2O[C@H](SC)[C@H](O)[C@@H](O)[C@H]2O)[C@@H](C)O)N(C)C1 [Lincomycin] + C/C(=C\C(=O)OCCCCCCCCC(=O)O)C[C@@H]1OC[C@H](C[C@@H]2O[C@H]2[C@@H](C)[C@H](C)O)[C@@H](O)[C@H]1O [Pseudomonic acid]
fitness, S. pneumoniae D39V [4]
Conditions	first compound 0.2 µg/mL	first compound 0.215 µg/mL	first compound 0.4 µg/mL	first compound 0.43 µg/mL	first compound 0.8 µg/mL	first compound 0.86 µg/mL
partner 0.03 µg/mL	0.649	0.828	–	0.633	0.121	0.177
partner 0.06 µg/mL	–	–	0.206	–	0.0533	0.142
partner 0.12 µg/mL	0.179	–	0.156	–	0.0889	0.12

Conditions	Bliss interaction score
B. subtilis 168 [2]	-0.0308
S. aureus DSM 20231	0.0155
S. aureus Newman	0.031
S. pneumoniae D39V [3]	-0.269

CCC[C@@H]1C[C@@H](C(=O)N[C@@H]([C@H]2O[C@H](SC)[C@H](O)[C@@H](O)[C@H]2O)[C@@H](C)O)N(C)C1 [Lincomycin] + CO[C@H]1/C=C/O[C@@]2(C)Oc3c(C)c(O)c4c(O)c(c(/C=N/N5CCN(C)CC5)c(O)c4c3C2=O)NC(=O)/C(C)=C\C=C\[C@H](C)[C@H](O)[C@@H](C)[C@@H](O)[C@@H](C)[C@H](OC(C)=O)[C@@H]1C [Rifampicin]
fitness, S. pneumoniae D39V [4], one replicate
Conditions	first compound 0.2 µg/mL	first compound 0.4 µg/mL	first compound 0.8 µg/mL
partner 0.025 µg/mL	0.137	0.0822	0.0813
partner 0.2 µg/mL	0	0	0

fitness, S. pneumoniae D39V [4]
Conditions	first compound 0.2 µg/mL	first compound 0.215 µg/mL	first compound 0.4 µg/mL	first compound 0.43 µg/mL	first compound 0.8 µg/mL	first compound 0.86 µg/mL
partner 0.05 µg/mL	–	–	0.0846	–	0.0947	0.185
partner 0.1 µg/mL	0.076	–	0.0641	–	0.0864	0.147
partner 0.2 µg/mL	–	0.26	–	0.221	–	0.131

Conditions	Bliss interaction score
B. subtilis 168 [2]	-0.0988
S. aureus DSM 20231	-0.0747
S. aureus Newman	0.0333
S. pneumoniae D39V [3]	-0.136

CCC[C@@H]1C[C@@H](C(=O)N[C@@H]([C@H]2O[C@H](SC)[C@H](O)[C@@H](O)[C@H]2O)[C@@H](C)O)N(C)C1 [Lincomycin] + Clc1ccc(COC(Cn2ccnc2)c2ccc(Cl)cc2Cl)c(Cl)c1 [Miconazole]
S. pneumoniae D39V [4]
Conditions	fitness
first compound 0.2 µg/mL, partner 1.073 µg/mL	0.824
first compound 0.2 µg/mL, partner 2.145 µg/mL	0.874
first compound 0.2 µg/mL, partner 4.29 µg/mL	0.807
first compound 0.215 µg/mL, partner 1.25 µg/mL	0.808
first compound 0.215 µg/mL, partner 2.5 µg/mL	0.782
first compound 0.215 µg/mL, partner 5 µg/mL	0.81
first compound 0.4 µg/mL, partner 1.073 µg/mL	0.716
first compound 0.4 µg/mL, partner 2.145 µg/mL	0.683
first compound 0.4 µg/mL, partner 4.29 µg/mL	0.544
first compound 0.43 µg/mL, partner 1.25 µg/mL	0.71
first compound 0.43 µg/mL, partner 2.5 µg/mL	0.682
first compound 0.43 µg/mL, partner 5 µg/mL	0.689
first compound 0.8 µg/mL, partner 4.29 µg/mL	0.275
first compound 0.86 µg/mL, partner 1.25 µg/mL	0.264
first compound 0.86 µg/mL, partner 2.5 µg/mL	0.308
first compound 0.86 µg/mL, partner 5 µg/mL	0.377

Conditions	Bliss interaction score
B. subtilis 168 [2]	0.0378
S. aureus DSM 20231	0.0484
S. aureus Newman	0.0538
S. pneumoniae D39V [3]	0.117

CCC[C@@H]1C[C@@H](C(=O)N[C@@H]([C@H]2O[C@H](SC)[C@H](O)[C@@H](O)[C@H]2O)[C@@H](C)O)N(C)C1 [Lincomycin] + O=C1CN(/N=C/c2ccc([N+](=O)[O-])o2)C(=O)N1 [Nitrofurantoin]
fitness, S. pneumoniae D39V [4]
Conditions	first compound 0.2 µg/mL	first compound 0.215 µg/mL	first compound 0.4 µg/mL	first compound 0.43 µg/mL	first compound 0.8 µg/mL	first compound 0.86 µg/mL
partner 1.285 µg/mL	0.718	–	0.677	–	0.281	–
partner 2 µg/mL	–	0.753	–	0.681	–	0.392
partner 2.57 µg/mL	0.775	–	0.716	–	0.266	–
partner 4 µg/mL	–	0.763	–	0.7	–	0.358
partner 8 µg/mL	–	0.711	–	0.381	–	0.141

S. pneumoniae D39V [4], partner 5.14 µg/mL, one replicate
Conditions	fitness
first compound 0.2 µg/mL	0.768
first compound 0.4 µg/mL	0.633
first compound 0.8 µg/mL	0.189

Conditions	Bliss interaction score
B. subtilis 168 [2]	0.163
S. aureus DSM 20231	-0.0943
S. aureus Newman	-0.101
S. pneumoniae D39V [3]	-0.118

COc1c(N2C[C@@H]3CCCN[C@@H]3C2)c(F)cc2c(=O)c(C(=O)O)cn(C3CC3)c12 [Moxifloxacin] + CO[C@H]1/C=C/O[C@@]2(C)Oc3c(C)c(O)c4c(O)c(c(/C=N/N5CCN(C)CC5)c(O)c4c3C2=O)NC(=O)/C(C)=C\C=C\[C@H](C)[C@H](O)[C@@H](C)[C@@H](O)[C@@H](C)[C@H](OC(C)=O)[C@@H]1C [Rifampicin]
fitness, S. pneumoniae D39V [4], one replicate
Conditions	first compound 0.0037 µg/mL	first compound 0.0075 µg/mL	first compound 0.015 µg/mL
partner 0.025 µg/mL	0.868	0.822	0.779
partner 0.2 µg/mL	0	0	0

fitness, S. pneumoniae D39V [4]
Conditions	first compound 0.0037 µg/mL	first compound 0.005 µg/mL	first compound 0.0075 µg/mL	first compound 0.01 µg/mL	first compound 0.015 µg/mL	first compound 0.02 µg/mL
partner 0.05 µg/mL	0.776	0.919	0.725	0.908	0.713	0.908
partner 0.1 µg/mL	0.317	–	0.295	–	0.354	–
partner 0.2 µg/mL	–	0.168	–	0.196	–	0.198

Conditions	Bliss interaction score
B. subtilis 168 [2]	-0.0221
S. aureus DSM 20231	-0.0701
S. aureus Newman	-0.0223
S. pneumoniae D39V [3]	-0.0845
